In publication PMC6590088 (Science signaling, 2010):
Non-standard residues stand in square brackets, D forms with d. No end group written: not given here. pY = N[C@@H](Cc1ccc(OP(=O)(O)O)cc1)C(=O)O

Assays:
BRDG1 SH2 domain (WT) = molecular target: T1, BRDG1 SH2 domain (WT) (Homo sapiens, UniProt Q9ULZ2); test: Fluorescence polarization binding assay, wild-type BRDG1 SH2 domain; conditions: table S2B
T1 sequence (Q9ULZ2 177-280 limits assumed): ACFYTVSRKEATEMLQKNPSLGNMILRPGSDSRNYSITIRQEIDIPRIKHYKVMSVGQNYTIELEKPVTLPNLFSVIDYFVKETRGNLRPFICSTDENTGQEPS

BKS SH2 domain = test: Peptide-binding experiments, BKS SH2 domain; conditions: table S2B
[1] = molecular target: NTAL pTyr136 peptide with Leu+4 replaced by Ala (human); test: fluorescence polarisation
[2] = molecular target: T2, BRDG1 SH2 domain (Asp167-Ser285) C269A (human, UniProt Q9ULZ2 167-285, C269A); test: crystal structure
T2 sequence (looked up): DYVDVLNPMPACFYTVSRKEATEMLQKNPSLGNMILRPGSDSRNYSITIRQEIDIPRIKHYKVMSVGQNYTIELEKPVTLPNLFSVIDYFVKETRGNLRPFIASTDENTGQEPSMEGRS

With NSpY^136ENVLICK [NTAL-pTyr^136] the “affinity for the BRDG1 SH2 domain (in words)” value (BRDG1 SH2 domain (WT)) was “high affinities” and the “binding to the BKS SH2 domain (in words)” value (BKS SH2 domain) was “bound strongly”.

B1: BRDG1 SH2 domain, wild type (fluorescence polarization) (domain or fragment)
chain: T1 sequence (Q9ULZ2 177-280 limits assumed)
B1 gave a fold reduction in affinity relative to the wild-type NTAL peptide [1] of 12 fold.

B2: NTAL phosphopeptide ANSpY136ENVLIAK-NH2 (peptide)
peptide: ANS[pY]ENVLIAK-NH2
modifications: N-terminus assumed
SMILES: CC[C@H](C)[C@H](NC(=O)[C@H](CC(C)C)NC(=O)[C@@H](NC(=O)[C@H](CC(N)=O)NC(=O)[C@H](CCC(=O)O)NC(=O)[C@H](Cc1ccc(OP(=O)(O)O)cc1)NC(=O)[C@H](CO)NC(=O)[C@H](CC(N)=O)NC(=O)[C@H](C)N)C(C)C)C(=O)N[C@@H](C)C(=O)N[C@@H](CCCCN)C(N)=O
B2: binds [2].
